This is an account of results in patent EP4803080A1, “METHOD FOR TREATING LEUKEMIA” (Shenzhen TargetRx Co., Ltd., priority 2023, dated 2025).

The nature of series [1]: Phase I clinical trial: safety and tolerability. The series is classed as in vivo. The source says:
To explore the safety and tolerability of multiple doses of Compound A in humans, and to determine the maximum tolerated dose (MTD) and the recommended Phase II dose (RP2D).
This study is a single-arm, open-label, dose-escalation and dose-expansion Phase I clinical trial. The trial plans to enroll patients with chronic myeloid leukemia (CML) who have developed resistance or intolerance after prior treatment with BCR-ABL1 tyrosine kinase inhibitor(s) (TKIs).
The dose-escalation phase of this trial consists of about 8 dose groups, with oral administration under fasting conditions. Subjects in all dose groups will receive a single dose on Day 1 (D1), followed by pharmacokinetic (PK) and tolerability observations. If no drug-related adverse events of Grade 3 or higher occur during the single-dose period, the subject will enter the multiple-dose period (i.e., the treatment period) after 3-5 days (for the first dose group, the multiple-dose period begins 5 days after the first dose [i.e., starting on Day 6]; for subsequent dose groups, the interval will be determined based on available tolerability and PK data). After entering the multiple-dose period, subjects in the first dose group will initially receive twice-daily (BID) dosing (if PK data from the single-dose period are available, the dosing frequency during the multiple-dose period may be adjusted based on the PK data). The dosing frequency for subjects in subsequent dose groups after entering the multiple-dose period will be determined based on available PK and tolerability data. Throughout the trial, dosing frequency for all subjects may be adjusted based on continuously updated safety and PK data.
A continuous reassessment method (CRM) based on the principle of the escalation with overdose control (EWOC) design will be used to recommend the next specific dose for each dose escalation, thereby completing dose escalation and determining the maximum tolerated dose (MTD). If both the investigator and sponsor believe that higher dose groups may offer better efficacy and manageable safety, the EWOC-based CRM method may be used to explore higher doses. All enrolled subjects will receive long-term treatment with the test drug and undergo evaluations for safety, tolerability, and preliminary efficacy.

For another series, the system named is Ba/F3 BCR-ABL1 T315M. The experiment in a line: Cell growth inhibition activity test, single agents and combinations (CellTiter-Glo, Chou-Talalay). The series is classed as cell-based, mouse. Conditions: Mus musculus, BaF3, 72 h, single agent; T315M; 72 hours; read-out: IC50. The protocol:
(§1) A series of cell lines expressing BCR-ABL1 single mutations and compound mutations were constructed based on the Ba/F3 mouse pro-B cell line.
(§2) This assay utilized the CellTiter-Glo (CTG) kit provided by Promega, which is a homogeneous method for cell viability detection, measuring the viability of cultured cells by quantifying ATP. Cells were seeded in 96-well plates and treated with different concentrations of test substances. […] At the end of the treatment, CTG reagent (CellTiter-Glo kit) was added according to the manufacturer's instructions to detect cell viability values. Plates were read on a microplate reader (Biotek cytation 3.0). IC50 values were calculated using GraphPad Prism 7.0 software.
A general note: In ATP-based viability assays light output follows the ATP content of the culture.

Series [2] relates to Ba/F3 BCR-ABL1 Y253H/T315I. The description is as above. Type of series: cell-based, mouse. Conditions: BCR-ABL1 Y253H/T315I, read-out: IC50^I1. The protocol:
as §1, §2

The next series relates to SUP-B15 cells. The experiment in a line: Efficacy study in the SUP-B15 subcutaneous xenograft model. The series is classed as in vivo. Conditions: for TGI (%): after 21 days of administration. The procedure: SUP-B15 cells, a Philadelphia chromosome-positive acute lymphoblastic leukemia cell line, were cultured in vitro using IMDM medium supplemented with 20% fetal bovine serum. When the cell count reached the required level, the cells were harvested, counted, and inoculated.
Animals: NCG mice, female, aged 6-8 weeks, weighing 18-22 grams. A total of 35 mice (including 15 spare mice) were used. The mice were provided by Jiangsu GemPharmatech Co., Ltd. or other qualified suppliers.
Tumor inoculation: 0.1 mL (10×10^6 cells) SUP-B15 cells and 0.1 mL Matrigel (total volume 0.2 mL) were mixed thoroughly and subcutaneously inoculated into the right back of each mouse.
Animal grouping and dosing: Grouping and dosing began when the average tumor volume reached 150-200 mm^3.
Animal Grouping: Animals were weighed and tumor volumes were measured prior to drug administration. Grouping was performed randomly based on tumor volume.
Observation: Daily monitoring of animal health status and mortality, routine checks include observing tumor growth and the impact of drug treatment on daily behavioral performance such as activity levels, food and water intake, weight changes (measured twice a week or every other day), external signs, or other abnormalities. The number of animal deaths and side effects within each group based on the number of animals in each group were recorded.
Test indicators: The test indicators were to examine whether tumor growth is inhibited, delayed, or cured. Tumor diameter was measured three times a week using a vernier caliper. The formula for calculating tumor volume was: V = 0.5a × b^2, where a and b represent the long and short diameters of the tumor, respectively.
The antitumor efficacy of the compounds was evaluated using TGI (%) or the relative tumor proliferation rate T/C (%). TGI (%) reflects the tumor growth inhibition rate.
Relative Tumor Proliferation Rate T/C (%): The calculation formula is as follows: T/C % = TRTV / CRTV × 100% (TRTV: treatment group RTV; CRTV: negative control group RTV). The relative tumor volume (RTV) is calculated based on tumor measurement results, with the formula RTV = Vt / V0, where V0 is the average tumor volume measured at the time of grouping (i.e., d0), and Vt is the average tumor volume at a specific measurement time. TRTV and CRTV use data from the same day.
At the end of the test, tumor weight will be measured, and the Tweight/Cweight percentage will be calculated, where Tweight and Cweight represent the tumor weights of the treatment group and the vehicle control group, respectively.
Data analysis: T-test is used for comparisons between two groups. One-way ANOVA is used for comparisons among three or more groups. […] All data analyses are performed using SPSS 17.0. A p < 0.05 is considered statistically significant.

Where [3] appears, read: CML subjects, safety data cutoff June 2, 2023.

Like-named read-outs stand apart in the source and are kept apart here.

Turning to `O=C(Nc1ccc(OC(F)(F)Cl)cc1)c1cnc(N2CC[C@@H](F)C2)c(-c2cnccn2)c1` [Compound A, (R)-N-(4-(chlorodifluoromethoxy)phenyl)-6-(3-fluoropyrrolidin-1-yl)-5-(pyrazin-2-yl)nicotinamide], in series [1] (CML subjects, 10 mg BID to 240 mg QD, safety data cutoff June 2, 2023), the “dose-dependent increase in the frequency of adverse events” value is “no observed dose-dependent increase”. Also, the “Grade ≥3 hematological adverse events associated with the test drug” value in series [1] (setting [3]) is given as “mostly manageable with treatment interruption”. The “non-hematological toxicity compared to ATP-competitive TKIs” value in series [1] (setting [3]) is given as “significant improvement in non-hematological toxicity”. In addition, the “pigmentation or severe arterial occlusive events and venous thromboembolic events” value in series [1] (setting [3]) was “no reported”. For the same molecule, the “safety and tolerability profile” value in series [1] (setting [3]) was “favorable safety and tolerability profile”. In addition, in series [1] (CML-CP and CML-AP patients, extended follow-up, as of June 2, 2024), the tolerability entry was “good tolerability”. For the same molecule, the IC50 was greater than 1 µM with Ba/F3 BCR-ABL1 T315M; 0.0653 µM in series [2] (IC50 of Compound A (I1) in Combination with olverembatinib (I2)); 0.166 µM in series [2] (IC50 of Compound A (I1) in Combination with ponatinib (I2)); 12.3 µM in series [2] (Mus musculus, BaF3, 72 h, Monotherapy (Table 12)). Besides, the “TGI (%)” value came out at 119.5% in the series on SUP-B15 cells (5 mg/kg p.o. qd), 124.7% in the series with SUP-B15 cells (15 mg/kg p.o. qd) and 125.6% in the series on SUP-B15 cells (45 mg/kg p.o. qd). Moreover, the weight loss entry in the series on SUP-B15 cells (any treatment group (5, 15, 45 mg/kg p.o. qd × 3 weeks)) is on record as “No significant weight loss”.

Usually IC50 stands for the point on the concentration scale where inhibition reaches its midpoint.
